Reference: patent publication US20060205756A1, “Antitussives” (Kyowa Hakko Kogyo Co., Ltd., priority 2003, published 2006)

System: citric acid-induced cough
Test: Citric acid-induced cough model of guinea pig
Assay type: in vivo
Conditions: for Numbers of the cough reflex by inhalation of citric acid: 1 hour before citric acid inhalation (0.5 mol/L, 2 min), coughs counted during 15 minutes, mean ± standard error; for Suppression of cough reflex as compared with the solvent group: Student's t-test versus solvent-administered group
Excerpt: Antitussive activity is able to be evaluated by suppression of the cough induced by inhalation of a substance such as citric acid, capsaicin, etc. It is also possible to evaluate antitussive activity by suppression of the cough induced by a direct infusion of citric acid or capsaicin into airway [Nippon Yakurigaku Zasshi, volume 120, page 237 (2002)]. It is further possible to evaluate antitussive activity by suppression of the cough by a physical stimulation, for example, contact stimulation of throat or airway [Eur. J. Phazmacol., volume 329, page 93 (1997)].
Evaluation Using the Citric Acid-Induced Cough Model of Guinea Pig
Guinea pigs (Hartley strain; male; six weeks age; Nippon SLC) were used for the test. Induction of cough reflex by citric acid was conducted in a similar manner to the method by Hosoe, et al. [Yakuri to Rinsho, volume 5, page 2147 (1995)]. Thus, the guinea pig was fixed in a double chamber plethysmograph box (manufactured by Buxco Electronics) for guinea pigs and ventilation was conducted at about 1.6 L/minute. A physiological saline containing 0.5 mol/L of citric acid (manufactured by Wako Pure Chemical) was sprayed for 2 minutes from the upper part of the box of the head side using an ultrasonic nebulizer (NE-U12 manufactured by Omron) and discharged from the side drain. The cough reflex was measured by the generated cough sound and the respiration waveform. Numbers of coughs generated during 15 minutes from initiation of inhalation of citric acid were counted. Compound 1, Compound 2 and codeine phosphate (manufactured by Shionogi) each was suspended in 0.5 w/v % methyl cellulose 400 cP (manufactured by Wako Pure Chemical) and orally administered 1 hour before the initiation of the inhalation of citric acid. Incidentally, with regard to the Compound 1 and Compound 2, each 2, mg thereof was suspended in 1 mL of 0.5 w/v % methyl cellulose 400 cP while, with regard to codeine phosphate, 4 mg thereof was suspended in 1 mL of 0.5 w/v % methyl cellulose 400 cP and the suspension was administered at 5 mL per kg body weight. Numbers of the cough reflex by inhalation of citric acid in the group administered with the solvent were 7.9±1.8, while those in the group administered with 10 mg/kg of Compound 1 were 2.0±1.0. In this test, seven guinea pigs were used for the group administered with the solvent and for the group administered with Compound 1, respectively. Numbers of the cough reflex were expressed as the mean value ±standard error. […] Numbers of the cough reflex by inhalation of citric acid in the group administered with 10 mg/kg of Compound 2 were 4.3±1.0, while those in the group administered with the solvent were 10.3±1.8. In this test, twelve guinea pigs were used for the group administered with the solvent and for the group administered with Compound 2, respectively. Numbers of the cough reflex were expressed as the mean value±standard error. […] Numbers of the cough reflex in the group administered with 20 mg/kg of codeine phosphate which is a central antitussive were 1.8±0.5, while those in the group administered with the solvent were 6.8±1.4. In this test, six guinea pigs were used for the group administered with the solvent and for the group administered with codeine phosphate. Numbers of the cough reflex were expressed as the mean value±standard error.

Row | Structure (SMILES) | Numbers of the cough reflex by inhalation of citric acid (10 mg/kg oral) | Suppression of cough reflex as compared with the solvent group (10 mg/kg oral) | Numbers of the cough reflex by inhalation of citric acid (20 mg/kg oral)
1 | CC(C)(O)C(=O)Nc1cccc2c1C(=O)c1sccc1CS2(=O)=O [Compound 2] | 4.3±1.0 | significant suppressive response | 
2 | COc1ccc2c3c1O[C@H]1[C@@H](O)C=C[C@H]4[C@@H](C2)N(C)CC[C@@]341 [codeine phosphate, reference compound] |  |  | 1.8±0.5
3 | C[C@](O)(C(=O)Nc1cccc2c1C(=O)c1sccc1CS2(=O)=O)C(F)(F)F [Compound 1] | 2.0±1.0 | significant suppressive response | 
